Experimental data reported in US9457095B2, “Pharmaceutical compositions providing enhanced drug concentrations” (Bend Research, Inc., priority 1999, dated 2016).
Converted amounts (≈) assume the structure as drawn. Structures can show the parent of a compound that is named as a salt.

Tests used:
Format in all cases: physicochemical
[1] = solubility of Drug 6 salt forms; settings: Drug 6 salts
[2] = microcentrifuge dissolution, sertraline lactate (Drug 2) with polymer
Protocol: For these tests, 1.8 mg sertraline lactate was added to 0.9 mL HPLC water in each of six microcentrifuge tubes. For Control 4, 0.9 mL 2×PBS (PBS solution with 2 times the standard buffer salt concentration), adjusted to pH 8.0, was added to Tubes 1 and 2. For Example 10, 0.9 mL 2×PBS (pH 8.0) containing 3.6 mg of HPMCAS-MF was added to Tubes 3 and 4. For Example 11, 0.9 mL 2×PBS (pH 8.0) containing 3.6 mg of CAT was added to Tubes 5 and 6.
Dissolution performance was measured at 37° C. using the microcentrifuge method described in Example 1. Samples were taken after 4, 10, 20, 40, 90, and 180 minutes as described in Example 1. Samples were diluted in 35% H2O/65% ACN (vol./vol.), and analyzed by HPLC. The mobile phase was 35 vol. % 0.025 M triethylamine with 0.05M acetic acid in HPLC water in ACN. The analytical column used was a Phenomenex ODS 20, and the drug concentration was determined using diode array detection at 230 nm.

[3] = microcentrifuge dissolution, ziprasidone mesylate (Drug 3) with polymer; settings: for [Drug 3]: PBS, 37° C.
Protocol: Ziprasidone mesylate (Drug 3) is the soluble salt form of the antipsychotic drug ziprasidone. For these tests, 0.5 mg drug was added to each of 8 microcentrifuge tubes. For Control 5, no concentration-enhancing polymer was added to Tubes 1 and 2. For Example 12, 1.0 mg of CAT was added to Tubes 3 and 4. For Example 13, 1.0 mg of CAP (NF grade from Eastman Fine Chemical of Kingsport, Tenn.) was added to Tubes 5 and 6. For Example 14, 1.0 mg HPMCP (NF grade from Eastman Chemical Company) was added to Tubes 7 and 8.
Dissolution performance was measured at 37° C. using the microcentrifuge method described in Example 1. For each test, 0.616 mg of Drug 3 was added to the microcentrifuge tube. At time 0, 1.8 mL PBS was added to each of the tubes. Drug concentration was measured using HPLC, with a mobile phase of 60 vol. % 0.02 M KH2PO4, pH 3.0 in ACN, and diode array detection at 254 nm.

[4] = solubility of sertraline forms; settings: for solubility: sertraline forms, pH 3, expressed as the free base
[5] = Cmax of Drug 1 forms in MFD solution; settings: pH 6.5 MFD solution
[6] = microcentrifuge dissolution, amorphous Drug 1 with varying ratios of HPMCAS-MF; settings: 15 mg amorphous Drug 1 in 1.5 mL PBS, 37° C.
Protocol: Amorphous Drug 1 (15 mg) was added to microcentrifuge tubes containing 1.5 mL of PBS solution and varying concentrations of HPMCAS-MF. Dissolution performance was measured at 37° C. using the microcentrifuge method described in Example 1. Drug concentration was measured at 1.5 hours and at 20 hours for each polymer concentration.

[7] = solubility of Drug 4 polymorphs in water; settings: Drug 4 mesylate polymorph

4-[3-[4-(2-methylimidazol-1-yl) phenylthio] phenyl]-3,4,5,6-tetrahydro-2H-pyran-4-carboxamide hemifumarate [Drug 6 hydrochloride salt]
solubility ([1]; pH 4): 0.37 mgA/mL | solubility ([1]; pH 7): 0.0009 mgA/mL

4-[3-[4-(2-methylimidazol-1-yl) phenylthio] phenyl]-3,4,5,6-tetrahydro-2H-pyran-4-carboxamide hemifumarate [Drug 6]
solubility ([1]; pH 4, listed as Drug 6 mesylate salt): 3.7 mgA/mL | solubility ([1]; pH 7, listed as Drug 6 mesylate salt): 0.0042 mgA/mL

CN[C@H]1CC[C@@H](c2ccc(Cl)c(Cl)c2)c2ccccc21 [Control 4]
[Drug 2] ([2]; 10 mins): 89 µg/mL | [Drug 2] ([2]; 20 mins): 72 µg/mL | [Drug 2] ([2]; 40 mins): 67 µg/mL | [Drug 2] ([2]; 90 mins): 63 µg/mL | [Drug 2] ([2]; 180 mins): 60 µg/mL | AUC180 ([2]; Drug 2 dissolution): 11,700 min * μg/mL | Cmax ([2]; Drug 2 dissolution): 101 µg/mL | [Drug 2] ([2]; PBS (2x PBS pH 8.0 added), 37° C., 4 mins): 101 µg/mL

CS(=O)(=O)O.O=C1Cc2cc(CCN3CCN(c4nsc5ccccc45)CC3)c(Cl)cc2N1 [Control 5]
AUC180 ([3]; Drug 3 dissolution in PBS): 1000 µg·min/mL | Cmax ([3]; Drug 3 dissolution in PBS): 11 µg/mL | [Drug 3] ([3]; 10 mins): 3 µg/mL | [Drug 3] ([3]; 20 mins): 11 µg/mL | [Drug 3] ([3]; 40 mins): 6 µg/mL | [Drug 3] ([3]; 90 mins): 7 µg/mL | [Drug 3] ([3]; 180 mins): 1 µg/mL

CN[C@H]1CC[C@@H](c2ccc(Cl)c(Cl)c2)c2ccccc21 [Drug 2, sertraline lactate]
solubility [4]: 256000 µg/mL

CN[C@H]1CC[C@@H](c2ccc(Cl)c(Cl)c2)c2ccccc21 [Drug 5, sertraline HCl]
solubility ([4]; aqueous solution, aqueous buffer, read-out: solubility): 3000 µg/mL | solubility thermodynamic ([4]; distilled water, aqueous buffer, thermodynamic from solid, sertraline hydrochloride with or without citric acid, pH 3, read-out: equilibrium solubility): 3000 µg/mL

O=C(N[C@@H](Cc1ccccc1)[C@@H](O)C(=O)N1C[C@@H](O)[C@@H](O)C1)c1cc2cc(Cl)ccc2[nH]1 [amorphous Drug 1, 5-chloro-1H-indole-2-carboxylic acid [(1 S)-benzyl-3-((3R, 4S)-dihydroxypyrroldin-1-yl-)-(2R)-hydroxy-3-oxypropyl] amide]
Cmax ([5]; listed as amorphous form): 270 µg/mL | [Drug] 1.5 hr. [6]: 224 µg/mL

O=C(N[C@@H](Cc1ccccc1)[C@@H](O)C(=O)N1C[C@@H](O)[C@@H](O)C1)c1cc2cc(Cl)ccc2[nH]1 [crystalline Drug 1, 5-chloro-1H-indole-2-carboxylic acid [(1 S)-benzyl-3-((3R, 4S)-dihydroxypyrroldin-1-yl-)-(2R)-hydroxy-3-oxypropyl] amide]
Cmax ([5]; listed as crystalline form): 160 µg/mL

C#Cc1cccc(Nc2ncnc3cc(OCCOC)c(OCCOC)cc23)c1 [“A” form, [6,7-Bis(2-methoxy-ethoxy)-quinazolin-4-yl]-(3-ethynyl-phenyl)amine]
solubility ([7]; read-out: solubility in water): 102 µg/mL (≈ 259 µM)

C#Cc1cccc(Nc2ncnc3cc(OCCOC)c(OCCOC)cc23)c1 [“C” form, [6,7-Bis(2-methoxy-ethoxy)-quinazolin-4-yl]-(3-ethynyl-phenyl)amine]
solubility ([7]; read-out: solubility): 28 µg/mL (≈ 71.2 µM)
